Nc1ccc(S(=O)(=O)O)cc1
solubility (mole fraction) (in acetic acid, 288.15 K): 0.00204 | solubility (mole fraction) (in acetic acid, 293.15 K): 0.00217 | solubility (mole fraction) (in acetic acid, 298.15 K): 0.00227 | solubility (mole fraction) (in acetic acid, 303.15 K): 0.0024 | solubility (mole fraction) (in acetic acid, 308.15 K): 0.00252 | solubility (mole fraction) (in acetic acid, 313.15 K): 0.00264 | solubility (mole fraction) (in acetic acid, 318.15 K): 0.00277 | solubility (mole fraction) (in acetic acid, 323.15 K): 0.00291 | solubility (mole fraction) (in acetic acid, 328.15 K): 0.00304 | solubility (mole fraction) (in acetone, 278.15 K): 0.000291 | solubility (mole fraction) (in acetone, 283.15 K): 0.000296 | solubility (mole fraction) (in acetone, 288.15 K): 0.000303 | solubility (mole fraction) (in acetone, 293.15 K): 0.00031 | solubility (mole fraction) (in acetone, 298.15 K): 0.000317 | solubility (mole fraction) (in acetone, 303.15 K): 0.000324 | solubility (mole fraction) (in acetone, 308.15 K): 0.000332 | solubility (mole fraction) (in acetone, 313.15 K): 0.000338 | solubility (mole fraction) (in acetone, 318.15 K): 0.000346 | solubility (mole fraction) (in acetone, 323.15 K): 0.000353 | solubility (mole fraction) (in acetone, 328.15 K): 0.00036 | solubility (mole fraction) (in acetonitrile, 278.15 K): 0.000132 | solubility (mole fraction) (in acetonitrile, 283.15 K): 0.000144 | solubility (mole fraction) (in acetonitrile, 288.15 K): 0.000165 | solubility (mole fraction) (in acetonitrile, 293.15 K): 0.000178 | solubility (mole fraction) (in acetonitrile, 298.15 K): 0.000195 | solubility (mole fraction) (in acetonitrile, 303.15 K): 0.000214 | solubility (mole fraction) (in acetonitrile, 308.15 K): 0.000235 | solubility (mole fraction) (in acetonitrile, 313.15 K): 0.000255 | solubility (mole fraction) (in acetonitrile, 318.15 K): 0.000274 | solubility (mole fraction) (in acetonitrile, 323.15 K): 0.000301 | solubility (mole fraction) (in acetonitrile, 328.15 K): 0.000324 | solubility (mole fraction) (in ethanol, 278.15 K): 0.000213 | solubility (mole fraction) (in ethanol, 283.15 K): 0.000231 | solubility (mole fraction) (in ethanol, 288.15 K): 0.000251 | solubility (mole fraction) (in ethanol, 293.15 K): 0.000264 | solubility (mole fraction) (in ethanol, 298.15 K): 0.000284 | solubility (mole fraction) (in ethanol, 303.15 K): 0.0003 | solubility (mole fraction) (in ethanol, 308.15 K): 0.000323 | solubility (mole fraction) (in ethanol, 313.15 K): 0.000338 | solubility (mole fraction) (in ethanol, 318.15 K): 0.000363 | solubility (mole fraction) (in ethanol, 323.15 K): 0.000385 | solubility (mole fraction) (in ethanol, 328.15 K): 0.000403 | solubility (mole fraction) (in formic acid, 278.15 K): 0.00106 | solubility (mole fraction) (in formic acid, 283.15 K): 0.00116 | solubility (mole fraction) (in formic acid, 288.15 K): 0.00129 | solubility (mole fraction) (in formic acid, 293.15 K): 0.00139 | solubility (mole fraction) (in formic acid, 298.15 K): 0.00152 | solubility (mole fraction) (in formic acid, 303.15 K): 0.00166 | solubility (mole fraction) (in formic acid, 308.15 K): 0.00181 | solubility (mole fraction) (in formic acid, 313.15 K): 0.00196 | solubility (mole fraction) (in formic acid, 318.15 K): 0.00213 | solubility (mole fraction) (in formic acid, 323.15 K): 0.00231 | solubility (mole fraction) (in formic acid, 328.15 K): 0.00247 | solubility (mole fraction) (in isopropanol, 278.15 K): 0.000253 | solubility (mole fraction) (in isopropanol, 283.15 K): 0.00027 | solubility (mole fraction) (in isopropanol, 288.15 K): 0.000303 | solubility (mole fraction) (in isopropanol, 293.15 K): 0.000318 | solubility (mole fraction) (in isopropanol, 298.15 K): 0.000348 | solubility (mole fraction) (in isopropanol, 303.15 K): 0.000373 | solubility (mole fraction) (in isopropanol, 308.15 K): 0.000403 | solubility (mole fraction) (in isopropanol, 313.15 K): 0.000429 | solubility (mole fraction) (in isopropanol, 318.15 K): 0.000461 | solubility (mole fraction) (in isopropanol, 323.15 K): 0.000494 | solubility (mole fraction) (in isopropanol, 328.15 K): 0.000525 | solubility (mole fraction) (in methanol, 278.15 K): 0.000247 | solubility (mole fraction) (in methanol, 283.15 K): 0.000263 | solubility (mole fraction) (in methanol, 288.15 K): 0.000284 | solubility (mole fraction) (in methanol, 293.15 K): 0.000299 | solubility (mole fraction) (in methanol, 298.15 K): 0.000318 | solubility (mole fraction) (in methanol, 303.15 K): 0.000342 | solubility (mole fraction) (in methanol, 308.15 K): 0.000362 | solubility (mole fraction) (in methanol, 313.15 K): 0.000383 | solubility (mole fraction) (in methanol, 318.15 K): 0.000403 | solubility (mole fraction) (in methanol, 323.15 K): 0.000432 | solubility (mole fraction) (in methanol, 328.15 K): 0.00045
